One may read the IC50 as the concentration that gives 50% inhibition. One may read the melting point as the temperature of the solid-liquid transition.

Series [1] can be described thus: MTT assay, toxicity on normal cells WI38. It is filed as cell-based, human. The note with it: WI-38 lung fibroblast cells (non-tumorigenic); MTT, 48 h, non-tumorigenic human lung cell line; read-out: Cytotoxicity IC50 WI38. The procedure: (§1) The cancer cell growth inhibitory activity of the synthesized compound was tested against three human cancer cell lines, namely, breast cancer (MCF-7), colon cancer (HCT116) and lung cancer (A549), as well as non-tumorigenic human lung cell line (WI38) to estimate the selectivity for tumor cells.
(§2) Anti-proliferative activity in compounds 4a–q were tested in three cancerous cell lines (MCF-7 breast cancer cells, A549 lung carcinoma, HCT human colon cancer cells) and in WI-38 human lung fibroblast cells. Cells were plated at a density of 1.2–1.8 × 10,000 cells/well in a volume of 100 µL complete growth medium and were incubated at 37 °C for 24 h. Cells were then treated with serially diluted tested compound and incubated at 37 °C for 48 h. Twenty microliters of 3-(4,5-dimethylthiazol-2-yl)-2,5-diphenyltetrazolium bromide (MTT) (2.5 mg/mL) dissolved in PBS were added to the cells and cells were further incubated for 4 h at 37 °C. To dissolve formazan crystals, MTT solutions were completely removed and 100 μL DMSO was added. The absorbance was detected at 540 nm using a Spectramax 250 microplate reader (Molecular device, San Jose, CA, USA), and viability (%) was calculated as [optical density (OD) of treated group/OD of control group] × 100.
(In general: Tetrazolium assays rely on reduction of a dye to a coloured formazan, in cell work by metabolically active cells.)

In series [2] the test system is WI-38 human lung fibroblast cells. Briefly: MTT assay, toxicity on normal cells WI38. It is filed as cell-based. The note with it: WI38 versus cancer cells. The procedure: as §1, §2
Series [3] relates to MCF-7 cells. Description: Cell cycle analysis, propidium iodide flow cytometry. It counts as cell-based, human. The note with it: 10 µm, 48 h, control 34.72%. The procedure: To evaluate if the antiproliferative effect of 4e was due to the disturbance of the cell cycle, cells were treated with 10 µm for 48 h. […] Therefore, it is possible that the antiproliferative effect of 4e is due to S-phase cell cycle arrest.
To detect cell cycle status after treating cells with 4e, 1 × 10^6 cells were cultured in six-well plates for twenty-four hours per cell and were then treated with 10 μm of 4e for 48 h. Cells were then washed with phosphate-buffered saline. Cells were then fixed with 70% of cold ethanol and kept at 4 °C overnight. Cell analysis was then analyzed following the manifacorere protocol, using a Propidium Iodide Flow Cytometry Kit for Cell Cycle Analysis (Abcam, Waltham, MA, USA).
A general note: A flow cytometer gives signals particle by particle.

The test system of series [4] is MCF-7 breast cancer cells. Description: MTT assay, antiproliferative activity, MCF-7. It counts as cell-based. To be noted: Homo sapiens, MCF7, 48 h, read-out: Cytotoxicity IC50 MCF7. The procedure:
as §1, §2

The test system of series [5] is MCF-7 cells. Briefly: Annexin V-FITC apoptosis flow cytometry. The note with it: 10 μm, 48 h. It counts as cell-based, human. The procedure: To detect the apoptotic potential of our compound of choice, 4e, an Annexin V-FITC Apoptosis Detection Kit (BioVision, Mountain View, CA, USA) was used based on the manufacturer’s protocol using a dose of 10 μm for 48 h.
In the next series the test system is MCF-7, A549, and HCT. Briefly: MTT assay, cytotoxicity over the three cancer cell lines. It counts as cell-based. The note with it: Homo sapiens, average over MCF-7, HCT116, A549, 48 h. The procedure:
The title compounds 4a–q were subjected to MTT assay to determine their cytotoxicity, and their in vitro antiproliferative activity was examined as well. The cancer cell growth inhibitory activity of the synthesized compound was tested against three human cancer cell lines, namely, breast cancer (MCF-7), colon cancer (HCT116) and lung cancer (A549), as well as non-tumorigenic human lung cell line (WI38) to estimate the selectivity for tumor cells. Staurosporine was used as a reference drug.
as §2, with “To dissolve formazan crystals, MTT solutions were completely removed and 100 μL DMSO was added.” left out

Series [6] deals with HCT116 colon cancer cells. Description: MTT assay, antiproliferative activity, HCT116. It counts as cell-based. To be noted: Homo sapiens, HCT-116, 48 h, read-out: Cytotoxicity IC50 HCT116. The procedure: as §1, §2
Series [7] relates to A549 lung carcinoma cells. Description: MTT assay, antiproliferative activity, A549. It is filed as cell-based. The note with it: Homo sapiens, 48 h, read-out: Cytotoxicity IC50 A549. The procedure:
as §1, §2

In turn, `NN(Cc1cc(C(F)(F)F)cc(C(F)(F)F)c1)C(=O)c1cc2ccccc2[nH]1` [4e, N-(3,5-Bis(trifluoromethyl)benzyl)-1H-indole-2-carbohydrazide] showed a melting point of 204 °C. For the same compound, the IC50 at 48 h in series [1] is 87.2 ± 4.94 µM. Also, the “selectivity against non-tumorigenic cell line (WI38) (in words)” value in series [2] is given as “exhibited selectivity toward cancer cells”. Besides, the “cell population in the S phase” value in the series with MCF-7 cells [3] is 48.72%. Further, the IC50 in [4] is 0.57 ± 0.03 µM. For the same compound, the “Annexin-V and 7-AAD positive cell populations” value in the series with MCF-7 cells [5] is on record as “significant increase”. Further, in the series with MCF-7, A549, and HCT, the half-maximal inhibitory concentration (IC50) was 2 µM. Also, the IC50 in series [6] came out at 1.95 ± 0.09 µM. Besides, in [7], the half-inhibitory concentration (IC50) stood at 3.49 ± 0.19 µM.
`NN(Cc1ccccc1)C(=O)c1cc2ccccc2[nH]1` [4c, N-Benzyl-1H-indole-2-carbohydrazide] showed a melting point of 237 °C. For the same compound, the IC50 at 48 h in series [1] is 50.4 ± 2.86 µM. For the same compound, the half-maximal inhibitory concentration (IC50) in series [4] is 62 ± 2.97 µM. The IC50 in series [6] was 32.5 ± 1.56 µM. The IC50 in series [7] was 25.3 ± 1.38 µM.
`COc1ccc2[nH]c(C(=O)N(N)Cc3ccc(C#N)cc3)cc2c1` [4l, N-(4-Cyanobenzyl)-5-methoxy-1H-indole-2-carbohydrazide] had a melting point of 248 °C. For the same compound, in series [1], the IC50 at 48 h was 18.5 ± 1.05 µM. Further, the concentration for half-maximal inhibition (IC50) in series [4] was found to be 81.4 ± 3.9 µM. The IC50 in series [6] came to 5.02 ± 0.24 µM. Besides, the IC50 in series [7] turned out to be 26.6 ± 1.45 µM.
Compound `NN(Cc1ccc(F)cc1)C(=O)c1cc2ccccc2[nH]1` [4g, N-(4-Fluorobenzyl)-1H-indole-2-carbohydrazide] gave a melting point of 209 °C. The IC50 at 48 h in [1] came out at 117 ± 6.65 µM. Further, the IC50 in series [4] was found to be 8.31 ± 0.4 µM. Moreover, in [6], the IC50 is 12.3 ± 0.59 µM. The IC50 in [7] was determined as 17 ± 0.93 µM.
The compound `COc1ccc2[nH]c(C(=O)N(N)Cc3ccc(F)cc3)cc2c1` [4h, N-(4-Fluorobenzyl)-5-methoxy-1H-indole-2-carbohydrazide] had a melting point of 175 °C. Besides, the half-inhibitory concentration (IC50) at 48 h in series [1] was found to be 64.1 ± 3.63 µM. In addition, the IC50 in series [4] turned out to be 13.1 ± 0.63 µM. Moreover, the IC50 in series [6] came out at 207 ± 9.94 µM. In [7], the IC50 was 23.9 ± 1.3 µM.
The matching figures for `COc1ccc2[nH]c(C(=O)N(N)Cc3ccc(Cl)cc3)cc2c1` [4b, N-(4-Chlorobenzyl)-5-methoxy-1H-indole-2-carbohydrazide]: 225 °C, 163 ± 9.25 µM, 11.5 ± 0.55 µM, 190 ± 9.12 µM and 49.2 ± 2.68 µM.
`NN(Cc1ccc(Cl)cc1)C(=O)c1cc2ccccc2[nH]1` [4a, N-(4-Chlorobenzyl)-1H-indole-2-carbohydrazide]: the melting point is 233 °C. The IC50 at 48 h in [1] was determined as 66.2 ± 3.75 µM. Also, the IC50 in series [4] is 21.7 ± 1.04 µM. Besides, the IC50 in [6] was 41.3 ± 1.98 µM. The IC50 in series [7] is 5.9 ± 0.32 µM.
For `COc1ccc2[nH]c(C(=O)N(N)Cc3ccc([N+](=O)[O-])cc3)cc2c1` [4p, N-(4-Nitrobenzyl)-5-methoxy-1H-indole-2-carbohydrazide] the same measures were 213 °C, 17.4 ± 0.99 µM, 7.01 ± 0.34 µM, 19.4 ± 0.93 µM and 3.02 ± 0.16 µM.
As to `NN(Cc1ccc(Br)cc1)C(=O)c1cc2ccccc2[nH]1` [4m, N-(4-Bromobenzyl)-1H-indole-2-carbohydrazide], the melting point was found to be 238 °C. Also, the IC50 at 48 h in [1] amounted to 46.1 ± 2.61 µM. In addition, in series [4], the half-inhibitory concentration (IC50) worked out at 62.9 ± 3.01 µM. In addition, the IC50 in series [6] worked out at 17.5 ± 0.84 µM. In addition, the IC50 in [7] stood at 12.9 ± 0.7 µM.
On to `COc1ccc2[nH]c(C(=O)N(N)Cc3ccc(C)cc3)cc2c1` [4q, N-(4-Methylbenzyl)-5-methoxy-1H-indole-2-carbohydrazide], for which the melting point was determined as 166 °C. Besides, the IC50 at 48 h in series [1] is 56.2 ± 3.18 µM. Moreover, the IC50 in [4] was found to be 1.01 ± 0.05 µM. The same compound returned an IC50 in the series with MCF-7, A549, and HCT of 3.28 ± 2.3 µM. Also, in series [6], the IC50 stood at 6.45 ± 0.31 µM. In addition, the IC50 in series [7] was 2.4 ± 0.13 µM.
Compound `COc1ccc2[nH]c(C(=O)N(N)Cc3ccccc3)cc2c1` [4d, N-Benzyl-5-methoxy-1H-indole-2-carbohydrazide] yielded a melting point of 210 °C. Besides, the IC50 at 48 h in series [1] came to 95.2 ± 5.39 µM. Moreover, in series [4], the IC50 worked out at 3.23 ± 0.16 µM. Further, the half-inhibitory concentration (IC50) in [6] was 66.2 ± 3.17 µM. Further, the IC50 in series [7] amounted to 5.69 ± 0.31 µM.
Regarding `COc1ccc2[nH]c(C(=O)N(N)Cc3ccc(Br)cc3)cc2c1` [4n, N-(4-Bromobenzyl)-5-methoxy-1H-indole-2-carbohydrazide], the melting point was found to be 228 °C. Besides, the IC50 at 48 h in series [1] amounted to 252 ± 14.3 µM. Besides, the IC50 in series [4] came to 141 ± 6.74 µM. Further, the IC50 in series [6] came out at 61 ± 2.92 µM. Also, the IC50 in series [7] is 16.7 ± 0.91 µM.
In turn, `COc1ccc2[nH]c(C(=O)N(N)Cc3ccc(C(F)(F)F)cc3)cc2c1` [4j, N-(4-(Trifluoromethyl)benzyl)-5-methoxy-1H-indole-2-carbohydrazide] gave a melting point of 220 °C. Also, the 50% inhibitory concentration (IC50) at 48 h in series [1] was found to be 97.9 ± 5.54 µM. Further, the IC50 in [4] came out at 3.27 ± 0.16 µM. In [6], the IC50 was 9.16 ± 0.44 µM. Moreover, in series [7], the IC50 is 6.78 ± 0.37 µM.
In turn, `NN(Cc1ccc([N+](=O)[O-])cc1)C(=O)c1cc2ccccc2[nH]1` [4o, N-(4-Nitrobenzyl)-1H-indole-2-carbohydrazide] came in with a melting point of 223 °C. The IC50 at 48 h in [1] was 86 ± 4.87 µM. Moreover, the IC50 in [4] turned out to be 3.66 ± 0.18 µM. For the same compound, in series [6], the IC50 came to 2.41 ± 0.12 µM. Besides, the half-maximal inhibitory concentration (IC50) in [7] was 22.3 ± 1.21 µM.
The matching figures for `COc1ccc2[nH]c(C(=O)N(N)Cc3cc(C(F)(F)F)cc(C(F)(F)F)c3)cc2c1` [4f, N-(3,5-Bis(trifluoromethyl)benzyl)-5-methoxy-1H-indole-2-carbohydrazide]: 195 °C, 24.4 ± 1.38 µM, 58.1 ± 2.78 µM, 9.79 ± 0.47 µM and 8.33 ± 0.45 µM.
`N#Cc1ccc(CN(N)C(=O)c2cc3ccccc3[nH]2)cc1` [4k, N-(4-Cyanobenzyl)-1H-indole-2-carbohydrazide] displayed a melting point of 202 °C. The IC50 at 48 h in series [1] came out at 30.8 ± 1.74 µM. Further, the IC50 in series [4] was found to be 9.21 ± 0.44 µM. Moreover, the concentration for half-maximal inhibition (IC50) in series [6] was 39.1 ± 1.88 µM. Also, in series [7], the IC50 amounted to 2.65 ± 0.14 µM.
The matching figures for `NN(Cc1ccc(C(F)(F)F)cc1)C(=O)c1cc2ccccc2[nH]1` [4i, N-(4-(Trifluoromethyl)benzyl)-1H-indole-2-carbohydrazide]: 190 °C, 25.3 ± 1.43 µM, 23.9 ± 1.15 µM, 52.2 ± 2.5 µM and 11.6 ± 0.63 µM.

Source of the values: article PMC10178769, “A Facile Synthesis and Molecular Characterization of Certain New Anti-Proliferative Indole-Based Chemical Entities” (International Journal of Molecular Sciences, 2023).
